# Data as given in ChEMBL document CHEMBL1275254 (2010).
# Tested on: Burkholderia pseudomallei
# Assay: Antimicrobial activity against Burkholderia pseudomallei 1026b after 24 hrs by broth microdilution method
# Assay type: functional
row,Molecule,MIC
1,O=C(N[C@H](CO)[C@H](O)c1ccc([N+](=O)[O-])cc1)C(Cl)Cl [CHLORAMPHENICOL],8 µg/mL
2,CC[C@H]1OC(=O)[C@H](C)[C@@H](O[C@H]2C[C@@](C)(OC)[C@@H](O)[C@H](C)O2)[C@H](C)[C@@H](O[C@@H]2O[C@H](C)C[C@H](N(C)C)[C@H]2O)[C@](C)(OC)C[C@@H](C)C(=O)[C@H](C)[C@@H](O)[C@]1(C)O [CLARITHROMYCIN],128 µg/mL
3,CCC[C@@H]1C[C@@H](C(=O)N[C@@H]([C@H]2O[C@H](SC)[C@H](O)[C@@H](O)[C@H]2O)[C@H](C)Cl)N(C)C1 [CLINDAMYCIN],> 4100 µg/mL
4,NC[C@H]1O[C@H](O[C@H]2[C@H](O)[C@@H](O[C@H]3O[C@H](CO)[C@@H](O)[C@H](N)[C@H]3O)[C@H](N)C[C@@H]2N)[C@H](O)[C@@H](O)[C@@H]1O [KANAMYCIN],64 µg/mL
5,CC1COc2c(N3CCN(C)CC3)c(F)cc3c(=O)c(C(=O)O)cn1c23 (stereo not drawn) [OFLOXACIN],2 µg/mL
6,CN[C@@H]1[C@H](O)[C@H](NC)[C@H]2O[C@@]3(O)C(=O)C[C@@H](C)O[C@H]3O[C@@H]2[C@H]1O [SPECTINOMYCIN],2050 µg/mL
7,CN[C@@H]1[C@H](O[C@H]2[C@H](O[C@H]3[C@H](O)[C@@H](O)[C@H](N=C(N)N)[C@@H](O)[C@@H]3N=C(N)N)O[C@@H](C)[C@]2(O)C=O)O[C@@H](CO)[C@H](O)[C@H]1O [STREPTOMYCIN],> 2050 µg/mL
8,GENTAMICIN,512 µg/mL
